The target of the assay is T1, recombinant human Estrogen Receptor alpha ligand binding domain, residues 307-554 (ER alpha-LBD (GST)) (Homo sapiens, UniProt P03372).
T1 construct: made in house
T1 sequence (P03372 307-554): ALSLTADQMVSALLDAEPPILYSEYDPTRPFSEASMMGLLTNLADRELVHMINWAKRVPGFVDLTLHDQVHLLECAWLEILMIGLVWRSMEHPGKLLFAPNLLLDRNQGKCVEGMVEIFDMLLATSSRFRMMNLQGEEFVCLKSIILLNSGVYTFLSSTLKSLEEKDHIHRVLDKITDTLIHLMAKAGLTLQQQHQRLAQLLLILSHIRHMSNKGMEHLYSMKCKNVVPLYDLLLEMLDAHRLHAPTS
As to the kind of experiment: ERα binding assay (LanthaScreen TR-FRET competition). The settings on record: TR-FRET competition with Fluormone ES2 tracer, 4 hours at room temperature; single experiment or average of two or more.

Molecules are shown by their SMILES. pIC50: −log10 of the molar value.

Broadly, the pIC50 is the IC50 on a negative log10 scale, so that one unit is a factor of ten. On to `Cc1ncsc1-c1ccc(CNC(=O)[C@@H]2C[C@@H](O)CN2C(=O)[C@@H](NC(=O)COCCc2ccc(COc3cc(F)c([C@@H]4c5[nH]c6ccccc6c5C[C@@H](C)N4CC(C)(C)F)c(F)c3)nc2)C(C)(C)C)cc1` [Example 158, (2S,4R)-1-((S)-2-(2-(2-(6-((3,5-Difluoro-4-((1R,3R)-2-(2-fluoro-2-methylpropyl)-3-methyl-2,3,4,9-tetrahydro-1H-pyrido[3,4-b]indol-1-yl)phenoxy)methyl)pyridin-3-yl)ethoxy)acetamido)-3,3-dimethylbutanoyl)-4-hydroxy-N-(4-(4-methylthiazol-5-yl)benzyl)pyrrolidine-2-carboxamide], for which the pIC50 is 9.10. In the case of `Cc1ncsc1-c1ccc(CNC(=O)[C@@H]2C[C@@H](O)CN2C(=O)[C@@H](NC(=O)COCCC(C)(C)CCOc2cc(F)c([C@@H]3c4[nH]c5ccccc5c4C[C@@H](C)N3CC(C)(C)F)c(F)c2)C(C)(C)C)cc1` [Example 23, (2S,4R)-1-((S)-2-(2-((5-(3,5-Difluoro-4-((1R,3R)-2-(2-fluoro-2-methylpropyl)-3-methyl-2,3,4,9-tetrahydro-1H-pyrido[3,4-b]indol-1-yl)phenoxy)-3,3-dimethylpentyl)oxy)acetamido)-3,3-dimethylbutanoyl)-4-hydroxy-N-(4-(4-methylthiazol-5-yl)benzyl)pyrrolidine-2-carboxamide] it was 8.96.

(Values after US10519152B2, “Compounds and their use in treating cancer” (AstraZeneca AB, priority 2017, dated 2019).)
